Data as given in patent publication US9434670B2, “Family of aryl, heteroaryl, O-aryl and O-heteroaryl carbasugars” (TFCHEM, priority 2011, dated 2016).
Values after ≈ are worked out from the molar mass of the structure shown. Blank lines part the entries; values can stand above or below the compound they belong to.

Tests used:
[1] = tested on: 18 hrs fasted female CD1 mice; experiment: Decrease of blood glucose excursions following oral glucose challenge (oral glucose tolerance test); assay type: in vivo
Method: As experimental animal, 18 hrs fasted female CD1 mice (CDM or Charles River) were used. A test compound was dissolved in the vehicle (5% N-methyl pyrrolidone, 20% PEG 400, 75% 20 mM Na4P2O7 buffer, v/v/v) at the concentration of 1 mg/mL. After the body weights of the mice were measured and the mice randomized, the test article was orally administered at the dose of 1 mg/kg, 3 mg/kg and 10 mg/kg. For control, just the vehicle (5% N-methyl pyrrolidone, 20% PEG 400, 75% 20 mM Na4P2O7 buffer, v/v/v) was orally administered. 15 min after this oral administration, a 20% glucose solution in deionised water was orally administered to all mice. The oral administration was performed with gastric tube for mice and a 1 mL syringe. The minimum count in one group was 3 but could reach 5 for some groups. Collection of the blood was performed via the saphenous vein. Blood was collected at 5, 10, 30, 45, 60 and 120 min post glucose challenge. One experiment consisted in administrating the test article 18 hrs prior to a glucose challenge i.e. 18 hrs post po of test article. The blood glucose concentration was measured using Johnson and Johnson's OneTouch® Ultra Blood Glucose Monitoring System. The glucose concentrations for controls and test articles at the different time points were averaged using Excel 2007 and plotted using GraphPad Prism 5.

female CD1 mice = experiment: Facilitatory effect on urinary glucose excretion after oral administration; assay type: in vivo; conditions: 3 mg/kg po
Method: As experimental animal, female CD1 mice (CDM or Charles River) were used. A test compound was dissolved in the vehicle (5% N-methyl pyrrolidone, 20% PEG 400, 75% 20 mM Na4P2O7 buffer, v/v/v) at the concentration of 1 mg/mL After the body weights of the mice were measured and the mice randomized, the test article was orally administered at the dose of 1 mg/kg, 3 mg/kg and 10 mg/kg. For control, just the vehicle (5% N-methyl pyrrolidone, 20% PEG 400, 75% 20 mM Na4P2O7 buffer, v/v/v) was orally administered. The oral administration was performed with gastric tube for mice and a 1 mL syringe. The minimum count in one group was 3 but could reach 12 for some groups. Collection of the urine was performed manually by gentling massaging the abdomen in order to collect urine (3 μL) via a calibrated pipette. Urine was collected at 1, 2, 4, 6, 8 and then 16, 18, 20, 22, 24, 26 and 28 hrs. The urine glucose concentration was measured using a WAKO glucose kit as follows: 3 μL of urine was deposited into a 96-well micro plate for spectrometric readout. The urine aliquot was diluted with 350 μL of the WAKO working solution. […] The absorbance of the 96-well plates were then read at 505 nm using a BioTek SynergyMX plate fluorometer/absorbance photometer and the glucose concentration was calculated. […]

[2] = tested on: β-glucosidase from Almonds; experiment: Enzymatic stability against glycosidase, HPLC analysis after incubation with β-glucosidase; assay type: in vitro ADME; conditions: for degradation in the presence of β-glucosidase (in words): 4 h at 37° C., phosphate buffer pH 7, 10 U β-glucosidase
Text: The enzymatic stability assay has been performed with compound 26 according to the invention and compound A used as a reference compound to control the efficacy of the β-glucosidase. The sergliflozin-A stability has also been evaluated in order to compare the improvement of metabolic stability obtained through the replacement of the intracyclic oxygen atom of the glucose moiety by a CF2 moiety.
All the compounds have been treated with β-glucosidase. The stability of compound 26 and Sergliflozin-A has been assessed by HPLC analysis after incubation with β-glucosidase.
A Gilson HPLC system was used, equipped with a manual injection system (V=20 μL), a Diode Array Detector (DAD172) set at a wavelength of 230 nm and a 150 mm×4.6 mm, 5 μm HICHROM Kromasil 100-5C18 reverse phase column. A linear HPLC binary gradient was used as follows: solvent A was water and solvent B was acetonitrile. Following the injection of 20 μL of a sample, solvent B was held at 20% for 3 min, increased from 20% to 90% in 17 min, held at 90% for 4 min; finally, solvent B was decreased back to 20% over 5.5 min and was held at 20% for 3.5 min.
The procedure has been adapted from J. Agric. Food Chem. 2005, 53, 4918-4924.
100 μL of a solution of compound 26 at 4.5·10^−4 mol·L^−1 in acetonitrile was added to a solution containing 800 μL of phosphate buffer (73173 Fluka, pH 7) in the presence of β-glucosidase from Almonds (10 U, 100 μL of a 5.6 mg·mL^−1 solution in phosphate buffer, (G4511sigma 18.7 U per mg)) and was kept 4 h at 37° C.
100 μL of a solution of sergliflozin-A at 4.5·10^−4 moL·L^−1 in acetonitrile has been treated in the presence of β-glucosidase following the same process.
In parallel, 100 μL of a solution of p-nitrophenyl-β-glucoside (compound A) at 4.5·10^−4 mol·L^−1 in phosphate buffer (73173 Fluka, pH 7) was added to a solution containing 700 μL of phosphate buffer and 100 μL of acetonitrile, with the presence of β-glucosidase from Almonds (10 U, 100 μL of a 5.6 mg·mL^−1 solution in phosphate buffer, (G4511 sigma 18.7 U per mg)) and was kept 4 h at 37° C. During the process in the presence of β-glucosidase, a yellow coloration was observed that underlines the decomposition of compound. A.
HPLC of compound 21 (FIG. 7), compound 26 (FIG. 8) and Sergliflozin-A (FIG. 10) have been performed to follow up in the experiments the formation of compound 21 (the aglycone part) implying a degradation of the starting material.
In order to evaluate the percentage of degradation, a calibration has been done on compound 21 giving the following results:
Data have been plotted (Area % versus concentration) and the linear regression obtained was characterized by the equation y=53629x and a R^2=0.994. […]

Mushroom Tyrosinase [3] = experiment: Tyrosinase inhibition, concentration series and IC50 (assay f); assay type: biochemical; conditions: for IC50: Concentration Tyrosinase 100 U/mL, from linear regression of % activity versus concentration; for Absorbance (477 nm): 1 h 30 at 37° C.; for % activity: witness solution = 100%
Method: The protocol performed is the same as in assay e. Solution A (1,000 U/mL mother solution of Tyrosinase) was prepared by dissolving all of 50 kU Mushroom Tyrosinase in 1 mL 100 mM pH6.5 bis Tris buffer and QS to 50 mL with milliQ water. Bis Tris buffer (100 mM pH6.5 bis Tris buffer) was prepared by dissolving 2.09 g of Bis Tris in milliQ water and QS to 100 mL. pH was adjusted at 6.5 using hydrochloric acid. Solution B (mother solution of Tyrosine) was prepared by dissolving 20 mg of Tyrosine in milliQ water and QS to 20 mL. Stock solution of compound 31 was prepared as follow: 10 mg of compound 31 was dissolved in Bis Tris buffer up to 1 ml. Stock solution of β-arbutin was prepared as follow: 20 mg of compound β-arbutin was dissolved in Bis Tris buffer up to 1 ml. The solutions were incubated for 1 h 30 at 37° C., then quickly cooled to 4° C. 100 μL of each solution were deposited on 96-well plate. The absorbance of the different solutions were measured at 477 nm (Molecular Devices: Spectra Max 340PC). The different solutions were prepared as described in the different tables below and their absorbances were reported. The absorbance of witness solution (without inhibitor) was set at 100% of enzymatic activity, allowing us to determine the percentage of enzymatic activity of the different solutions. Data have been plotted (% of activity versus concentration of inhibitors) and the linear regression of the curve was used to calculate the […] of both compounds.

Mushroom Tyrosinase [4] = experiment: Inhibition of Tyrosine-Tyrosinase reaction, absorbance at 477 nm (assay e); assay type: biochemical; conditions: test compound n = 5·10^−5 mol; Solution A 1 mL, Solution B 0.5 mL, buffer 0.5 mL; witness solution 0.4354
Method: Inhibition of tyrosinase, i.e. inhibition of the hydroxylation of Tyrosine into DOPA, was measured by visible spectrophotometry, and more specifically by measuring the absorbance at 477 nm, indicative of the amount of melanine produced in vitro from the Tyrosine substrate by Tyrosinase. In order to make sure that the measured absorbance is proportional to the enzymatic activity in the range of studied concentrations, five standard solutions were prepared as follows. Absorbance has been measured on a Perkin Elmer UV/Vis Spectrometer Lambda 12. Solution A (1,000 U/mL mother solution of Tyrosinase) was prepared by dissolving 40 mg of 1,250 U/mg Mushroom Tyrosinase in 1 mL 100 mM pH6.5 bis Tris buffer and QS to 50 mL with milliQ water. Bis Tris buffer (100 mM pH6.5 bis Tris buffer) was prepared by dissolving 2.09 g of Bis Tris in milliQ water and QS to 100 mL. Solution B (mother solution of Tyrosine) was prepared by dissolving 100 mg of Tyrosine in milliQ water and QS to 100 mL. The standard solutions were incubated for 2 h at 37° C., then quickly cooled to 4° C. […] The following test solutions were prepared and their absorbance was measured at 477 nm: […]

[5] = tested on: β-glucosidase from Almonds; conditions: as referred in several publications; cited from earlier work
[6] = Inhibitor Concentration 0.17 mg/mL
[7] = Inhibitor Concentration 0.33 mg/mL
[8] = Inhibitor Concentration 0.50 mg/mL
[9] = Inhibitor Concentration 0.67 mg/mL
[10] = Inhibitor Concentration 0.83 mg/mL
[11] = Inhibitor Concentration 1.33 mg/mL
[12] = Inhibitor Concentration 2.00 mg/mL
[13] = Inhibitor Concentration 2.67 mg/mL
[14] = Inhibitor Concentration 3.33 mg/mL

SMILES: CCOc1ccc(Cc2cc([C@H]3[C@H](O)[C@@H](O)[C@H](O)[C@@H](CO)C3(F)F)ccc2Cl)cc1 [Compound 16]
- blood glucose excursions following glucose challenge ([1]; 3 mg/kg po administered 18 hrs prior to glucose challenge (FIG. 4)): still reduced blood glucose excursions
- blood glucose levels following glucose challenge ([1]; 1, 3 and 10 mg/kg po, normal mice, glucose 15 min after dosing (FIG. 3)): reduced blood glucose levels in a dose-dependent manner
- duration of glucosuria (female CD1 mice; compared to Dapagliflozin (FIG. 5)): > 24 h

SMILES: COc1ccc(Cc2ccccc2O[C@H]2[C@H](O)[C@@H](O)[C@H](O)[C@@H](CO)C2(F)F)cc1 [Compound 26]
- degradation in the presence of β-glucosidase (in words) [2]: no degradation occurs

- IC50 (Mushroom Tyrosinase [3]): 0.328 mg/mL (≈ 1070 µM)
- Absorbance (477 nm) (Mushroom Tyrosinase [3]; [6]): 0.5855
- % activity (Mushroom Tyrosinase [3]; [6]): 81.55%
- Absorbance (477 nm) (Mushroom Tyrosinase [3]; [7]): 0.3535
- % activity (Mushroom Tyrosinase [3]; [7]): 49.23%
- Absorbance (477 nm) (Mushroom Tyrosinase [3]; [8]): 0.255
- % activity (Mushroom Tyrosinase [3]; [8]): 35.52%
- Absorbance (477 nm) (Mushroom Tyrosinase [3]; [9]): 0.220
- % activity (Mushroom Tyrosinase [3]; [9]): 30.57%
- Absorbance (477 nm) (Mushroom Tyrosinase [3]; [10]): 0.200
- % activity (Mushroom Tyrosinase [3]; [10]): 27.86%
- Absorbance (477 nm) (Mushroom Tyrosinase [4]): 0.1292
SMILES: OC[C@@H]1[C@@H](O)[C@H](O)[C@@H](O)[C@H](Oc2ccc(O)cc2)C1(F)F [Compound 31]

- Absorbance (477 nm) (Mushroom Tyrosinase [4]): 0.1528
SMILES: Oc1ccc(O)cc1 [Hydroquinone]

SMILES: COc1ccc(Cc2ccccc2O[C@@H]2O[C@H](CO)[C@@H](O)[C@H](O)[C@H]2O)cc1 [Sergliflozin-A]
- cleavage by β-glucosidase [5]: undergo cleavage
- degradation in the presence of β-glucosidase (in words) [2]: degradation occurs
- degradation ([2]; 4 h of incubation at 37° C. with β-glucosidase, pH 7, from HPLC area of aglycone 21): 80%

SMILES: CCOc1ccc(Cc2cc([C@H]3[C@H](O)[C@@H](O)[C@H](O)[C@@H](CO)[C@@H]3O)ccc2Cl)cc1 [compound 9 of WO 2009/1076550]
- glucosuria detected in the same time period (up to 24 hrs) (female CD1 mice; 16 to 28 hours after administration (FIG. 6)): none could be detected

SMILES: O=[N+]([O-])c1ccc(O[C@@H]2O[C@H](CO)[C@@H](O)[C@H](O)[C@H]2O)cc1 [compound A, p-nitrophenyl-β-glucoside]
- degradation in the presence of β-glucosidase (in words) [2]: decomposition

- IC50 (Mushroom Tyrosinase [3]): 1.1 mg/mL (≈ 4040 µM)
- Absorbance (477 nm) (Mushroom Tyrosinase [3]; [9]): 0.5010
- % activity (Mushroom Tyrosinase [3]; [9]): 66.62%
- Absorbance (477 nm) (Mushroom Tyrosinase [3]; [11]): 0.3040
- % activity (Mushroom Tyrosinase [3]; [11]): 40.43%
- Absorbance (477 nm) (Mushroom Tyrosinase [3]; [12]): 0.2380
- % activity (Mushroom Tyrosinase [3]; [12]): 31.65%
- Absorbance (477 nm) (Mushroom Tyrosinase [3]; [13]): 0.2035
- % activity (Mushroom Tyrosinase [3]; [13]): 27.06%
- Absorbance (477 nm) (Mushroom Tyrosinase [3]; [14]): 0.1970
- % activity (Mushroom Tyrosinase [3]; [14]): 26.20%
SMILES: OC[C@H]1O[C@@H](Oc2ccc(O)cc2)[C@H](O)[C@@H](O)[C@@H]1O [β-Arbutin]
